This note sets out measurements from patent US9328106B2, “Cyclic ether pyrazol-4-yl-heterocyclyl-carboxamide compounds and methods of use” (Genentech, Inc., priority 2012, dated 2016).

The target of one assay is PIM1 (Homo sapiens (Human), UniProt P11309). The assay is described as follows: biochemical. Format: biochemical. The following applies: 20 pM PIM1, 1 μM FAM-peptide, 10 μM ATP, 90 minutes at room temperature; read-out: PIM1 LC3K (KI).
The next assay concerns BaF3 parental cells. Kind of assay: In vitro cell proliferation, BaF3 parental line + IL3.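 Also: BaF3 parental cells are murine IL-3 dependent pro-B cells grown with 2 ng/mL mIL-3, 384-well format, viability read by luminescence.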 Format: cell-based, murine. The following applies: mIL-3, incubated overnight, CELL TITER GLO, read-out: Prolif BaF3 IL3 (IC50). Background: ATP-based viability assays read luminescence as a measure of living cells.
For another assay, the system named is BaF3 PIM1 cells. Kind of assay: In vitro cell proliferation, BaF3 transfected with PIM1.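 Also: murine IL-3-dependent pro-B BaF3 cells transfected with PIM1, compound exposure overnight at 37 °C under 5% CO2, viability read as luminescence.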 Format: cell-based, murine.
For assay [1], the system named is MM1.S (multiple myeloma) cells. The assay is described as follows: In vitro cell proliferation, MM1.S multiple myeloma cells.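 Also: cells cultured in RPMI with 10% FBS and 2 mM L-Glutamine, seeded in 384-well plates, exposed to compound, cell viability measured by luminescence after CellTiter-Glo addition.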 The following applies: MM1.S cells, 72 hours, CELL TITER GLO, read-out: Prolif MM1S ATP (EC50). Format: cell-based.
Method: (§1) BaF3 parental line was obtained from the DSMZ repository. […] Media for BaF3 parental line contained RPMI, 10% FBS, 2 mM L-Glutamine, 2 ng/mL mIL-3. Media for BaF3 PIM1 & 2 lines contained RPMI, 10% FBS, 2 mM L-Glutamine, 250 μg/mL. Media for MM1.S (multiple myeloma cells) line contained RPMI, 10% FBS, 2 mM L-Glutamine.
(§2) BaF3, a murine interleukin-3 dependent pro-B cell line, parental cells, BaF3 PIM1 cells, BaF3 PIM2 cells, and MM1.S (multiple myeloma) cells were seeded at 2 k/well, 5 k/well, 5 k/well, and 10 k/well respectively, in a 384-well plate, at 45 μL/well. Test compound was added at 5 μL/well. BaF3 cells (parental and transfected) were incubated overnight, while MM1.S cells were incubated for 72 hours at 37° C., 5% CO2. CELL TITER GLO® Reagent (Promega) was added at 50 μL/well, the plates were incubated for 30 minutes, and their luminescence read on an HT Analyst. IC50/EC50 values for the test compound were calculated.
Setting [2] is: Mus musculus, BaF3, BaF3 parental.
The mark [3] stands for this setting: Mus musculus, BaF3, read-out: Prolif BaF3 PIM1 (IC50), BaF3 PIM1 cells, incubated overnight, CELL TITER GLO.

pEC50, pIC50, pKi: −log10 of the molar value. Where two headings read alike, the source gives them in different places.

For orientation: pKi means the negative decadic logarithm of the Ki, by convention in mol/L. As a reminder, the pIC50 is −log10 of the IC50, conventionally taken in molar units. For orientation: pEC50 means the negative decadic logarithm of the EC50, by convention in mol/L.

Sequence of PIM1 (P11309 whole entry): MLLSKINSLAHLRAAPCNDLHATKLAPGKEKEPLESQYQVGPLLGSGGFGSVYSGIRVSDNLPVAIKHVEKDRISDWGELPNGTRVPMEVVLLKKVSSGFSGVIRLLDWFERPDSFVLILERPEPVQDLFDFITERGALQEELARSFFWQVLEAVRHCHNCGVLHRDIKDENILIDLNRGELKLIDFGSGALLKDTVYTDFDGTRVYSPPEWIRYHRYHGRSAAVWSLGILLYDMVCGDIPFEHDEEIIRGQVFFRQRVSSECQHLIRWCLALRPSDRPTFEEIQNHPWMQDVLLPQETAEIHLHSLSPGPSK
Method for BaF3 PIM1 cells: as §1, §2

As for `Cn1ncc(NC(=O)c2csc(-c3c(F)cc(F)cc3F)n2)c1[C@@H]1CC[C@@H](N)[C@H](F)CO1` [Example 364, N-(5-((2S,5R,6S)-5-amino-6-fluorooxepan-2-yl)-1-methyl-1H-pyrazol-4-yl)-2-(2,4,6-trifluorophenyl)thiazole-4-carboxamide], the pKi on PIM1 is 10.41. Further, the results for the negative logarithm of the IC50 (pIC50) with BaF3 parental cells (setting [2]) and in the assay with BaF3 PIM1 cells (setting [3]) were 4.69 and 6.68, respectively. In addition, the pEC50 in assay [1] (Homo sapiens, MM1.S, 72 h) was 5.96.

Regarding `Cn1ncc(NC(=O)c2nc(-c3c(F)cccc3F)sc2N)c1C12CCC(O)C(CC1)O2` (single isomer, unassigned) [Example 110, 5-amino-2-(2,6-difluorophenyl)-N-[5-(2-hydroxy-8-oxabicyclo[3.2.1]octan-5-yl)-1-methyl-pyrazol-4-yl]thiazole-4-carboxamide], the pKi at PIM1 was 10.77. The pIC50 is 5.03 with BaF3 parental cells (BaF3 parental) and 7.35 with BaF3 PIM1 cells (read-out: Prolif BaF3 PIM1 (IC50), BaF3 PIM1 cells, incubated overnight, CELL TITER GLO). In addition, in assay [1], the negative logarithm of the EC50 (pEC50) was 5.62.

`Cn1ncc(NC(=O)c2nc(-c3ccccc3C(F)(F)F)sc2N)c1[C@@H]1CC[C@@H](N)[C@H](F)CO1` [Example 323, 5-amino-N-(5-((2S,5R,6S)-5-amino-6-fluorooxepan-2-yl)-1-methyl-1H-pyrazol-4-yl)-2-(2-(trifluoromethyl)phenyl)thiazole-4-carboxamide]: the negative logarithm of the Ki (pKi) on PIM1 is 9.55. Further, the negative-log IC50 (pIC50) with BaF3 parental cells (setting [2]) is below 4.60; in the assay with BaF3 PIM1 cells (setting [3]) it was 6.73. In addition, the pEC50 in assay [1] (Homo sapiens, MM1.S, 72 h) was 5.00.

Consider `Cn1ncc(NC(=O)c2ccc(F)c(-c3ccc(Cl)cc3F)n2)c1[C@@H]1CC[C@@H](N)[C@H](F)CO1` [Example 359, N-(5-((2S,5R,6S)-5-amino-6-fluorooxepan-2-yl)-1-methyl-1H-pyrazol-4-yl)-6-(4-chloro-2-fluorophenyl)-5-fluoropicolinamide], for which, at PIM1, the pKi is 11.15. The pIC50 is 4.94 in the assay with BaF3 parental cells (setting [2]) and 6.58 with BaF3 PIM1 cells (setting [3]). For the same compound, the pEC50 in assay [1] (Homo sapiens, MM1.S, 72 h) was 5.24.

Regarding `Cn1ncc(NC(=O)c2csc(-c3n[nH]c4c3CCC(C)(C)C4)n2)c1[C@@H]1CC[C@@H](N)[C@H](F)CO1` [Example 373, N-(5-((2S,5R,6S)-5-amino-6-fluorooxepan-2-yl)-1-methyl-1H-pyrazol-4-yl)-2-(6,6-dimethyl-4,5,6,7-tetrahydro-1H-indazol-3-yl)thiazole-4-carboxamide], the negative-log Ki (pKi) at PIM1 was 11.05. Also, the values for the negative logarithm of the IC50 (pIC50) in the assay with BaF3 parental cells (setting [2]) and in the assay on BaF3 PIM1 cells (setting [3]) were 5.07 and 7.00, respectively. In assay [1] (Homo sapiens, MM1.S, 72 h), the negative logarithm of the EC50 (pEC50) was 5.47.

For `Cn1ncc(NC(=O)c2csc(-c3c(F)ccc(C4CC4)c3F)n2)c1[C@@H]1CC[C@@H](N)[C@H](F)CO1` [Example 363, N-(5-((2S,5R,6S)-5-amino-6-fluorooxepan-2-yl)-1-methyl-1H-pyrazol-4-yl)-2-(3-cyclopropyl-2,6-difluorophenyl)thiazole-4-carboxamide], at PIM1, the pKi is 10.47. Moreover, the pIC50 in the assay on BaF3 parental cells (setting [2]) was 5.35; in the assay with BaF3 PIM1 cells (setting [3]), 6.53. The negative logarithm of the EC50 (pEC50) in assay [1] (Homo sapiens, MM1.S, 72 h) is 6.03.

With `Cn1ncc(NC(=O)c2csc(-c3c(F)cccc3F)n2)c1[C@@H]1CC[C@@H](N)[C@H](F)CO1` [Example 321, N-(5-((2S,5R,6S)-5-amino-6-fluorooxepan-2-yl)-1-methyl-1H-pyrazol-4-yl)-2-(2,6-difluorophenyl)thiazole-4-carboxamide], the pKi on PIM1 was 10.86. Besides, the pIC50 is 5.36 in the assay with BaF3 parental cells (setting [2]) and 7.30 with BaF3 PIM1 cells (setting [3]). The pEC50 in assay [1] (Homo sapiens, MM1.S, 72 h) was 6.41.

On to `Cn1ncc(NC(=O)c2csc(-c3ccc(F)cc3F)n2)c1[C@@H]1CC[C@@H](N)[C@H](F)CO1` [Example 325, N-(5-((2S,5R,6S)-5-amino-6-fluorooxepan-2-yl)-1-methyl-1H-pyrazol-4-yl)-2-(2,4-difluorophenyl)thiazole-4-carboxamide], for which the pKi on PIM1 is 10.30. For the same compound, the pIC50 in the assay with BaF3 parental cells (setting [2]) was 5.20; in the assay with BaF3 PIM1 cells (setting [3]), 6.85. Moreover, in assay [1] (Homo sapiens, MM1.S, 72 h), the pEC50 was 6.13.

Take `C[C@@H]1C[C@@H](N)CC[C@H](c2c(NC(=O)c3nc(-c4c(F)cccc4F)sc3N)cnn2C)O1` [Example 121, 5-amino-N-(5-((2R,5S,7R)-5-amino-7-methyloxepan-2-yl)-1-methyl-1H-pyrazol-4-yl)-2-(2,6-difluorophenyl)thiazole-4-carboxamide]: the pKi on PIM1 is 11.52. For the same compound, the pIC50 is 5.46 with BaF3 parental cells (setting [2]) and 7.87 with BaF3 PIM1 cells (setting [3]). The pEC50 in assay [1] (Homo sapiens, MM1.S, 72 h) is 7.92.

With `Cn1ncc(NC(=O)c2csc(-c3cc(=O)n(C)cc3F)n2)c1[C@@H]1CC[C@@H](N)[C@H](F)CO1` [Example 387, N-(5-((2S,5R,6S)-5-amino-6-fluorooxepan-2-yl)-1-methyl-1H-pyrazol-4-yl)-2-(5-fluoro-1-methyl-2-oxo-1,2-dihydropyridin-4-yl)thiazole-4-carboxamide], the negative logarithm of the Ki (pKi) on PIM1 was 9.02. For the same compound, the pIC50 is 5.09 in the assay with BaF3 parental cells (setting [2]) and 5.49 in the assay on BaF3 PIM1 cells (setting [3]). The pEC50 in assay [1] (Homo sapiens, MM1.S, 72 h) was 5.70.

Turning to `COc1ccc(F)c(-c2nc(C(=O)Nc3cnn(C)c3[C@@H]3CC[C@@H](N)[C@H](F)CO3)cs2)c1` [Example 356, N-(5-((2S,5R,6S)-5-amino-6-fluorooxepan-2-yl)-1-methyl-1H-pyrazol-4-yl)-2-(2-fluoro-5-methoxyphenyl)thiazole-4-carboxamide], the negative-log Ki (pKi) at PIM1 is 10.28. In addition, the figures for the pIC50 in the assay with BaF3 parental cells (setting [2]) and in the assay with BaF3 PIM1 cells (setting [3]) were 5.19 and 6.97, respectively. In addition, in assay [1] (Homo sapiens, MM1.S, 72 h), the pEC50 was 5.85.

For the compound `COc1cccc(-c2nc(C(=O)Nc3cnn(C)c3[C@@H]3CC[C@@H](N)[C@H](F)CO3)cs2)c1F` [Example 362, N-(5-((2S,5R,6S)-5-amino-6-fluorooxepan-2-yl)-1-methyl-1H-pyrazol-4-yl)-2-(2-fluoro-3-methoxyphenyl)thiazole-4-carboxamide], the pKi at PIM1 was 10.44. The values for the negative-log IC50 (pIC50) in the assay on BaF3 parental cells (setting [2]) and with BaF3 PIM1 cells (setting [3]) were 5.51 and 7.29, respectively. Moreover, the negative logarithm of the EC50 (pEC50) in assay [1] (Homo sapiens, MM1.S, 72 h) is 6.47.

In the case of `Cn1ncc(NC(=O)c2nc(-c3cccc(F)c3F)sc2N)c1[C@@H]1CC[C@@H](N)[C@H](F)CO1` [Example 324, 5-amino-N-(5-((2S,5R,6S)-5-amino-6-fluorooxepan-2-yl)-1-methyl-1H-pyrazol-4-yl)-2-(2,3-difluorophenyl)thiazole-4-carboxamide], on PIM1, the pKi is 10.72. Besides, the pIC50 in the assay on BaF3 parental cells (setting [2]) is below 4.60; with BaF3 PIM1 cells (setting [3]) it was 7.34. Moreover, the pEC50 in assay [1] (Homo sapiens, MM1.S, 72 h) is 6.94.

As to `Cn1ncc(NC(=O)c2csc(-c3c(F)cccc3F)n2)c1[C@@H]1CC[C@@H](N)[C@@H](F)CO1` [Example 319, N-(5-((2S,5R,6R)-5-amino-6-fluorooxepan-2-yl)-1-methyl-1H-pyrazol-4-yl)-2-(2,6-difluorophenyl)thiazole-4-carboxamide], at PIM1, the pKi is 10.42. The pIC50 in the assay with BaF3 parental cells (setting [2]) was 5.11; in the assay on BaF3 PIM1 cells (setting [3]), 6.89. The pEC50 in assay [1] (Homo sapiens, MM1.S, 72 h) is 6.06.

As for `Cn1ncc(NC(=O)c2csc(-c3cc[nH]n3)n2)c1[C@@H]1CC[C@@H](N)[C@H](F)CO1` [Example 379, N-[5-[(2S,5R,6S)-5-amino-6-fluoro-oxepan-2-yl]-1-methyl-pyrazol-4-yl]-2-(1H-pyrazol-3-yl)thiazole-4-carboxamide], the pKi on PIM1 is 9.89. The negative logarithm of the IC50 (pIC50) was below 4.60 in the assay on BaF3 parental cells (setting [2]) and 6.01 with BaF3 PIM1 cells (setting [3]). In addition, in assay [1] (Homo sapiens, MM1.S, 72 h), the negative-log EC50 (pEC50) is 5.54.
